Experimental data from US20220079944A1, “2H-INDAZOLE DERIVATIVES AS THERAPEUTIC AGENTS FOR BRAIN CANCERS AND BRAIN METASTASES” (BETA PHARMA, INC., priority 2019, published 2022).
Where two headings read alike, the source gives them in different places.

Tests used:
[1] = Brain concentration and brain/plasma ratio in mouse after 10 mg/kg p.o.; assay type: in vivo; conditions: for concentration at 2 h / concentration at 4 h / concentration at 8 h / concentration at 24 h: po, 10 mg/kg
P-gp = target: T1, P-gp (Homo sapiens, UniProt P08183); assay: P-gp substrate potential using MDR1-MDCK monolayers (bidirectional permeability +/- valspodar); assay type: in vitro ADME
T1 construct: expressed in transfected cells; host or cells: MDR1-MDCK (MDCK cells expressing MDR1)
T1 sequence (P08183 whole entry): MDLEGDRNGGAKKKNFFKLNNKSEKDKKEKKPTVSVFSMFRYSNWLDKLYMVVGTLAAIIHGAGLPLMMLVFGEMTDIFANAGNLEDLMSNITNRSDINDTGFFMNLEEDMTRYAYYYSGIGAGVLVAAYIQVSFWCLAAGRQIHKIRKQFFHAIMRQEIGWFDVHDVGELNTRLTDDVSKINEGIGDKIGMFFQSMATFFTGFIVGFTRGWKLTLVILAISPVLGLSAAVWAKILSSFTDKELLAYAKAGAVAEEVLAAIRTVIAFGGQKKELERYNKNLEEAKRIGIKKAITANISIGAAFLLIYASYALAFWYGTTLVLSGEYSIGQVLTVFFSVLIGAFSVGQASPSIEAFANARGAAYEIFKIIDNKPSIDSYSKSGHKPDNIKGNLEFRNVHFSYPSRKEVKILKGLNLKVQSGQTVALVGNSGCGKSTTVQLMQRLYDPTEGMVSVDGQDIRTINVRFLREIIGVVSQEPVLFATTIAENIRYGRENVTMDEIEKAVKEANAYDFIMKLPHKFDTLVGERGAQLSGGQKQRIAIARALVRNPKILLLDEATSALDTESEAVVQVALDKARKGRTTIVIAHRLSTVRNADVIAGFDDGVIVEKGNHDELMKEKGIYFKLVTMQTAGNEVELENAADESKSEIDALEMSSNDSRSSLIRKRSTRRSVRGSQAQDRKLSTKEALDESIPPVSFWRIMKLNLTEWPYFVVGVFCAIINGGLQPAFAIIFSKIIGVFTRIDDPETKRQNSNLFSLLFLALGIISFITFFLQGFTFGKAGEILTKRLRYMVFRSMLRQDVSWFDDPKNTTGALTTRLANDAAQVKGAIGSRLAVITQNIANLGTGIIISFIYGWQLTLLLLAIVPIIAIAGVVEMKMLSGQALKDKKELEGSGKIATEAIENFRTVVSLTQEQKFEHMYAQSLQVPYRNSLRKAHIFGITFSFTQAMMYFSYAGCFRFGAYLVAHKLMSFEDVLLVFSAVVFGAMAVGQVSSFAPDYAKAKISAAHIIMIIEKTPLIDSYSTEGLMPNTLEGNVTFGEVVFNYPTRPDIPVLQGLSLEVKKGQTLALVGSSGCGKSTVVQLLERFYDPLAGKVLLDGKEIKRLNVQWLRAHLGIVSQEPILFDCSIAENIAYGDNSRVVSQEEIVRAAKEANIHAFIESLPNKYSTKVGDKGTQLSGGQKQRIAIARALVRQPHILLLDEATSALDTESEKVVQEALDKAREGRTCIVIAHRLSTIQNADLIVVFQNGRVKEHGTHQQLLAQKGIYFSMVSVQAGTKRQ
Description: The objective of this study was to determine the P-gp substrate potential of one test article using MDR1-MDCK monolayers.
Each determination was performed in duplicate. […] Analytical conditions are outlined in Appendix 1.
Papp=(dCr/dt)×Vr/(A×CA) (1)
Percent Recovery=100×((Vr×Cr^final)+(Vd×Cd^final))/(Vd×CN) (2) • where • dC/dt is the slope of the cumulative concentration in the receiver compartment versus time in μM s^−1; • Vr is the volume of the receiver compartment in cm^3; • Vd is the volume of the donor compartment in cm^3; • A is the area of the insert (1.13 cm^2 for 12-well); • CA is the average of the nominal dosing concentration and the measured 120 minute donor concentration in μM; • CN is the nominal concentration of the dosing solution in μM; • Cr^final is the cumulative receiver concentration in μM at the end of the incubation period; • Cd^final is the concentration of the donor in μM at the end of the incubation period.
Efflux ratio (ER) is defined as Papp (B-to-A)/Papp (A-to-B).

[2] = tested on: orthotopic U87MG-luc human glioblastoma; assay: Efficacy in combination with temozolomide against orthotopic U87MG-luc human glioblastoma in mice (bioluminescence); assay type: in vivo; conditions: glioblastoma model, combination with TMZ
Description: An efficacy and comparison study between Compound 1 and abemaciclib, in combination with temozolomide (TMZ), against orthotopic U87MG-luc human glioblastoma in mice was conducted. In each study, TMZ was dosed PO at 6 mg/kg, QD×5, and either Compound 1 or abemaciclib was dosed PO at 100 mg/kg. Tumor growth was observed by bioluminescence. […] From a broad perspective, the significant differentiation between Compound 1 and abemaciclib in a brain disease model can be traced to their distinct molecular structures. Female Envigo Nude Mice (Hsd:Athymic Nude-Fox1^nu) were used in this study. They were 6-7 weeks old on Day 1 of the experiment. The animals were fed irradiated Harlan 2918.15 Rodent Diet and water ad libitum. Animals were housed in INNOVIVE® disposable ventilated caging with corn cob bedding inside BIOBUBBLE® Clean Rooms that provide H.E.P.A filtered air into the bubble environment at 100 complete air changes per hour. All treatments, body weight determinations, and tumor measurements were carried out in the bubble environment. […] An aliquot of the homogeneous cell suspension was diluted in a trypan blue solution and counted using a Luna automated cell counter. […] Following implantation, an aliquot of the remaining cells was diluted with a trypan blue solution and counted to determine the post-implantation cell viability. […]

[3] = brain, PO 10 mg/kg, individual animal R1, read-out: Brain Concentration, R1 + 3n
[4] = brain, PO 10 mg/kg, individual animal R2, read-out: Brain Concentration, R2 + 3n
[5] = brain, PO 10 mg/kg, individual animal R3, read-out: Brain Concentration, R3 + 3n
[6] = brain, PO 10 mg/kg, mean, read-out: Brain Concentration, Mean PO
[7] = plasma, PO 10 mg/kg, individual animal R1, read-out: Plasma Concentration, R1 + 3n
[8] = plasma, PO 10 mg/kg, individual animal R2, read-out: Plasma Concentration, R2 + 3n
[9] = plasma, PO 10 mg/kg, individual animal R3, read-out: Plasma Concentration, R3 + 3n
[10] = plasma, PO 10 mg/kg, mean, read-out: Plasma Concentration, Mean PO

CCN1CCN(Cc2ccc(Nc3ncc(F)c(-c4ccc5nn(C)c(C(C)C)c5c4)n3)nc2)CC1 [Compound 1, N-(5-((4-ethylpiperazin-1-yl)methyl)pyridin-2-yl)-5-fluoro-4-(3-isopropyl-2-methyl-2H-indazol-5-yl)pyrimidin-2-amine]
Brain concentration relative to that of abemaciclib ([1]; 10 mg/kg p.o., higher than abemaciclib): approximately 3 fold | Kp ([1]; PO 10 mg/kg, brain AUC0-last / plasma AUC0-last, read-out: AUC0-last Ratio, brain/plasma (B/P) ratio): 1.43 | Brain AUC0-last ([1]; PO 10 mg/kg, brain, from mean concentrations): 11966 ng·h/g | AUC(0-t) ([1]; PO 10 mg/kg, plasma, from mean concentrations, read-out: Plasma AUC0-last): 8380 ng·h/mL | concentration at 2 h [1, 3]: 954 ng/g | concentration at 2 h [1, 4]: 630 ng/g | concentration at 2 h [1, 5]: 1100 ng/g | concentration at 2 h [1, 6]: 894 ng/g | concentration at 4 h [1, 3]: 1190 ng/g | concentration at 4 h [1, 4]: 1060 ng/g | concentration at 4 h [1, 5]: 1220 ng/g | concentration at 4 h [1, 6]: 1160 ng/g | concentration at 8 h [1, 3]: 1150 ng/g | concentration at 8 h [1, 4]: 1380 ng/g | concentration at 8 h [1, 5]: 1220 ng/g | concentration at 8 h [1, 6]: 1250 ng/g | concentration at 24 h [1, 3]: 9.06 ng/g | concentration at 24 h [1, 4]: 8.64 ng/g | concentration at 24 h [1, 5]: 15.8 ng/g | concentration at 24 h [1, 6]: 11.2 ng/g | concentration at 2 h [1, 7]: 833 ng/mL | concentration at 2 h [1, 8]: 500 ng/mL | concentration at 2 h [1, 9]: 748 ng/mL | concentration at 2 h [1, 10]: 694 ng/mL | concentration at 4 h [1, 7]: 669 ng/mL | concentration at 4 h [1, 8]: 543 ng/mL | concentration at 4 h [1, 9]: 1180 ng/mL | concentration at 4 h [1, 10]: 797 ng/mL | concentration at 8 h [1, 7]: 868 ng/mL | concentration at 8 h [1, 8]: 1030 ng/mL | concentration at 8 h [1, 9]: 722 ng/mL | concentration at 8 h [1, 10]: 873 ng/mL | concentration at 24 h [1, 7]: 4.36 ng/mL | concentration at 24 h [1, 8]: 5.3 ng/mL | concentration at 24 h [1, 9]: 10.6 ng/mL | concentration at 24 h [1, 10]: 6.75 ng/mL | P-gp substrate (P-gp; MDR1-MDCK monolayers, conclusion in words): not a substrate for P-gp | P-gp Substrate Classification (P-gp; MDR1-MDCK, 5 μM, +/− 1 μM valspodar): Negative (ER≥2.0 without valspodar, and reduced by <50% with valspodar: Negative) | recovery at 120 min, 5 μM (P-gp; dog, MDCK-MDR1, pH 7.4, MDR1-MDCK, 5 μM, A-to-B, without valspodar): 22% | Papp A→B at 120 min, 5 μM (P-gp; dog, MDCK-MDR1, pH 7.4, MDR1-MDCK, 5 μM, A-to-B, without valspodar, average, read-out: Papp AVG): 5.34 ×10⁻⁶ cm/s | Papp A→B at 120 min, 5 μM (P-gp; dog, MDCK-MDR1, pH 7.4, MDR1-MDCK, 5 μM, A-to-B, without valspodar, replicate R1, read-out: Papp R1): 5.25 ×10⁻⁶ cm/s | Papp A→B at 120 min, 5 μM (P-gp; dog, MDCK-MDR1, pH 7.4, MDR1-MDCK, 5 μM, A-to-B, without valspodar, replicate R2, read-out: Papp R2): 5.43 ×10⁻⁶ cm/s | recovery at 120 min, 5 μM (P-gp; dog, MDCK-MDR1, pH 7.4, MDR1-MDCK, 5 μM, B-to-A, without valspodar): 51% | Papp B→A at 120 min, 5 μM (P-gp; dog, MDCK-MDR1, pH 7.4, MDR1-MDCK, 5 μM, B-to-A, without valspodar, average, read-out: Papp AVG): 7.77 ×10⁻⁶ cm/s | Papp B→A at 120 min, 5 μM (P-gp; dog, MDCK-MDR1, pH 7.4, MDR1-MDCK, 5 μM, B-to-A, without valspodar, replicate R1, read-out: Papp R1): 7.14 ×10⁻⁶ cm/s | Papp B→A at 120 min, 5 μM (P-gp; dog, MDCK-MDR1, pH 7.4, MDR1-MDCK, 5 μM, B-to-A, without valspodar, replicate R2, read-out: Papp R2): 8.4 ×10⁻⁶ cm/s | recovery at 120 min, 5 μM (P-gp; dog, MDCK-MDR1, pH 7.4, with valspodar 1 μM, MDR1-MDCK, 5 μM, A-to-B, + 1 μM Valspodar): 19% | recovery at 120 min, 5 μM (P-gp; dog, MDCK-MDR1, pH 7.4, with valspodar 1 μM, MDR1-MDCK, 5 μM, B-to-A, + 1 μM Valspodar): 63% | efflux ratio at 120 min, 5 μM (P-gp; dog, pH 7.4, MDR1-MDCK, Papp (B-to-A)/Papp (A-to-B), without valspodar): 1.5 | In vivo efficacy relative to abemaciclib [2]: superior in vivo efficacy
